{"source": "patent US5409709A", "about": "(priority 1991, dated 1995)", "key": {"[1]": {"system": "body temperature (pyrogenic area, yeast)", "experiment": "Antipyretic action (yeast-induced fever)", "type": "in vivo, Wistar strain male rats", "conditions": "oral, rat, up to 6 h; in terms of the amount of the antipyretic analgesic ingredient"}, "[2]": {"system": "pain threshold", "experiment": "Analgesic action (pressure stimulation of tail base, rise ratio of pain threshold)", "type": "in vivo, Wistar strain male rats", "protocol": "Test medication A consisted of a suspension of Acasia used as the control. The other test medications contained the ingredients listed in the Table below, and were suspended in Acasia solution. These test medications were administered orally at a volume of 1 ml/100 g B.W. A pressure stimulation device (Analgesy-meter Model TK-201, Unicom) was used to apply pressure to the base of the tails of the animals. A pain threshold of […] was selected for the experimented animal based on parameters of reaction to temporary pain consisting of writhing, fleeing and squealing. The pain threshold was measured prior to oral administration of each test medication as well as at 30 and 120 minutes after administration. The ratio of the rise in the pain threshold at 30 and 120 minutes after administration was calculated from comparison with that before administration."}, "[3]": {"system": "writhing syndrome", "experiment": "Analgesic action (acetic acid writhing syndrome)", "type": "in vivo, ddY strain male mice", "conditions": "oral, mouse; in terms of the amount of analgesic antipyretic ingredient"}}}
{"smiles": "CC(C)Cc1ccc(C(C)C(=O)O)cc1", "note": "(stereo not shown) [Ibuprofen, 2-(4-isobutylphenyl)propionic acid]", "values": [{"measurement": "ED50", "setting": "[1]", "result": 20.4, "unit": "mg/kg"}, {"measurement": "Pain threshold at 30 minutes (in words)", "setting": "[2]; 30 minutes after administration", "result": "a remarkable rise was observed"}, {"measurement": "Pain threshold at 120 minutes (in words)", "setting": "[2]; 120 minutes after administration", "result": "essentially equal to that before administration"}, {"measurement": "ED50", "setting": "[3]", "result": 137, "unit": "mg/kg"}]}
